EP3345917A1, “ANTIPROTOZOAL COMPOUNDS” (Bacoba AG, priority 2017, dated 2018)
Non-standard residues stand in square brackets, D forms with d. Residues, ends and D or L forms follow the SMILES beside them. *: point of attachment. Hexenoyl(2E,4S-Me) = CC[C@H](C)/C=C/C(=O)*; Leu(3R-OH) = CC(C)[C@@H](O)[C@H](N)C(=O)O; NH((S)CH(Me)CH2NMe2) = C[C@@H](CN(C)C)N*; NH(2-morpholinoethyl) = C(CN1CCOCC1)N*; Pro(4S-Me) = C[C@@H]1CN[C@H](C(=O)O)C1; Gly(octyl) = CCCCCCCC[C@H](N)C(=O)O; Nva(5-OH) = N[C@@H](CCCO)C(=O)O; Hexanoyl = CCCCCC(=O)*; Aib = CC(C)(N)C(=O)O; X12 = CCC/C=C/C(=O)*; βAla = NCCC(=O)O

Assays:
[1] = system: Trypanosoma brucei rhodesiense (STIB 900 strain); test: Alamar Blue assay against Trypanosoma brucei rhodesiense grown in axenic medium; type: cell-based; conditions: In vitro inhibition, read-out: T.b.rhod.
Outline: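 Alamar Blue-based IC50 determination, in triplicate, on axenically grown STIB 900 trypanosomes. Melarsoprol included as reference.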

[2] = system: Trypanosoma cruzi trypomastigote forms (Tulahuen strain); test: Intracellular Trypanosoma cruzi assay in L6-cells, beta-galactosidase/CPRG readout; type: cell-based; conditions: In vitro inhibition, read-out: T.cruzi.
Outline: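 Readout was β-galactosidase cleavage of CPRG, read photometrically at 540 nm after 2–6 h colour development, giving IC50 values. Parasites: LacZ-expressing Tulahuen C2C4 strain grown in rat L6 myoblasts; run in triplicate.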

[3] = system: Axenically grown Leishmania donovani amastigotes (strain MHOM/ET/67/L82); test: Axenic Leishmania donovani amastigote resazurin assay; type: cell-based; conditions: In vitro inhibition, read-out: L.don. ax
Outline: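 IC50 values derive from resazurin fluorescence (ex 536 nm, em 588 nm), expressed relative to the negative control, after 2-4 hours of plate development. Axenic amastigotes of strain MHOM/ET/67/L82 were used; each test run in triplicate.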

[4] = system: intracellular Leishmania donovani (L.don. InMac); test: Intracellular Leishmania donovani assay (L.don. InMac); type: cell-based; conditions: In vitro inhibition
From the text: (§1) Tests were done in triplicate.

Plasmodium falciparum = test: 3H-hypoxanthine incorporation assay against Plasmodium falciparum; type: cell-based; conditions: In vitro inhibition, read-out: P.falc NF5
Procedure: as §1
IC50 values were calculated by linear interpolation.

[5] = Cytotoxicity assay on L6-cells (Alamar Blue); conditions: rat, Cytotox L6, Cytotoxicity against rat myoblast cells (L6)

CC[C@H](C)/C=C/C(=O)N1C[C@@H](C)C[C@H]1C(=O)N[C@@H](CCCO)C(=O)N[C@H](C(=O)NC(C)(C)C(=O)N[C@@H](CC(C)C)C(=O)N[C@@H](CC(C)C)C(=O)NC(C)(C)C(=O)NC(C)(C)C(=O)NCCC(=O)N[C@@H](C)CN(C)C)[C@H](O)C(C)C [Compound 5496, (2S,3R)-N-(1-{[(1S)-1-{[(1S)-1-{[1-({1-[(2-{[(2S)-1-(dimethylamino)propan-2-yl]carbamoyl}ethyl)carbamoyl]-1-methylethyl}carbamoyl)-1-methylethyl]carbamoyl}-3-methylbutyl]carbamoyl}-3-methylbutyl]carbamoyl}-1-methylethyl)-3-hydroxy-2-[(2S)-5-hydroxy-2-{[(2S,4S)-4-methyl-1-[(2E,4S)-4-methylhex-2-enoyl]pyrrolidin-2-yl]formamido}pentanamido]-4-methylpentanamide] ({Hexenoyl(2E,4S-Me)}-[Pro(4S-Me)][Nva(5-OH)][Leu(3R-OH)][Aib]LL[Aib][Aib][βAla]-{NH((S)CH(Me)CH2NMe2)})
IC50 [1]: 6.2 nM | IC50 [2]: 5110 nM | IC50 [3]: 467 nM | IC50 [4]: 2680 nM | IC50 (Plasmodium falciparum): 660 nM | IC50 at 70 h [5]: 5220 nM

CCC/C=C/C(=O)N1CCC[C@H]1C(=O)N[C@@H](CCCCCCCC)C(=O)N[C@H](C(=O)NC(C)(C)C(=O)N[C@@H](CC(C)C)C(=O)N[C@@H](CC(C)C)C(=O)NC(C)(C)C(=O)NC(C)(C)C(=O)NCCC(=O)N[C@@H](C)CN(C)C)[C@H](O)C(C)C [Compound 5514, (2S)-N-[(1S,2R)-1-[(1-{[(1S)-1-{[(1S)-1-{[1-({1-[(2-{[(2S)-1-(dimethylamino)propan-2-yl]carbamoyl}ethyl)carbamoyl]-1-methylethyl}carbamoyl)-1-methylethyl]carbamoyl}-3-methylbutyl]carbamoyl}-3-methylbutyl]carbamoyl}-1-methylethyl)carbamoyl]-2-hydroxy-3-methylbutyl]-2-{[(2S)-1-[(2E)-hex-2-enoyl]pyrrolidin-2-yl]formamido}decanamide] (X12-P[Gly(octyl)][Leu(3R-OH)][Aib]LL[Aib][Aib][βAla]-{NH((S)CH(Me)CH2NMe2)})
IC50 [1]: 0.2 nM | IC50 [2]: 20.1 nM | IC50 [3]: 0.4 nM | IC50 [4]: 96.8 nM | IC50 (Plasmodium falciparum): 0.8 nM | IC50 at 70 h [5]: 316 nM

CCCCCCCC[C@H](NC(=O)[C@@H]1CCCN1C(=O)CCCCC)C(=O)N[C@H](C(=O)NC(C)(C)C(=O)N[C@@H](CC(C)C)C(=O)N[C@@H](CC(C)C)C(=O)NC(C)(C)C(=O)NC(C)(C)C(=O)NCCC(=O)N[C@@H](C)CN(C)C)[C@H](O)C(C)C [Compound 5517, (2S)-N-[(1S,2R)-1-[(1-{[(1S)-1-{[(1S)-1-{[1-({1-[(2-{[(2S)-1-(dimethylamino)propan-2-yl]carbamoyl}ethyl)carbamoyl]-1-methylethyl}carbamoyl)-1-methylethyl]carbamoyl}-3-methylbutyl]carbamoyl}-3-methylbutyl]carbamoyl}-1-methylethyl)carbamoyl]-2-hydroxy-3-methylbutyl]-2-{[(2S)-1-hexanoylpyrrolidin-2-yl]formamido}decanamide] (Hexanoyl-P[Gly(octyl)][Leu(3R-OH)][Aib]LL[Aib][Aib][βAla]-{NH((S)CH(Me)CH2NMe2)})
IC50 [1]: 0.1 nM | IC50 [2]: 45.3 nM | IC50 [3]: 0.9 nM | IC50 [4]: 142 nM | IC50 (Plasmodium falciparum): 1.1 nM | IC50 at 70 h [5]: 338 nM

CCCCCCCC[C@H](NC(=O)[C@@H](NC(=O)[C@@H]1CCCN1C(=O)/C=C/[C@@H](C)CC)[C@H](O)C(C)C)C(=O)NC(C)(C)C(=O)N[C@@H](CC(C)C)C(=O)N[C@@H](CC(C)C)C(=O)NC(C)(C)C(=O)NC(C)(C)C(=O)NCCC(=O)N[C@@H](C)CN(C)C [Compound 5560, (2S)-N-(1-{[(1S)-1-{[(1S)-1-{[1-({1-[(2-{[(2S)-1-(dimethylamino)propan-2-yl]carbamoyl}ethyl)carbamoyl]-1-methylethyl}carbamoyl)-1-methylethyl]carbamoyl}-3-methylbutyl]carbamoyl}-3-methylbutyl]carbamoyl}-1-methylethyl)-2-[(2S,3R)-3-hydroxy-4-methyl-2-{[(2S)-1-[(2E,4S)-4-methylhex-2-enoyl]pyrrolidin-2-yl]formamido}pentanamido]decanamide] ({Hexenoyl(2E,4S-Me)}-P[Leu(3R-OH)][Gly(octyl)][Aib]LL[Aib][Aib][βAla]-{NH((S)CH(Me)CH2NMe2)})
IC50 [1]: 0.2 nM | IC50 [2]: 34.5 nM | IC50 [3]: 0.8 nM | IC50 [4]: 25.4 nM | IC50 (Plasmodium falciparum): 1.1 nM | IC50 at 70 h [5]: 791 nM

CCCCCCCC[C@H](NC(=O)[C@@H]1CCCN1C(=O)/C=C/[C@@H](C)CC)C(=O)N[C@@H](CC(C)C)C(=O)NC(C)(C)C(=O)N[C@@H](CC(C)C)C(=O)N[C@@H](CC(C)C)C(=O)NC(C)(C)C(=O)NC(C)(C)C(=O)NCCC(=O)N[C@@H](C)CN(C)C [Compound 5562, (2S)-N-[(1S)-1-[(1-{[(1S)-1-{[(1S)-1-{[1-({1-[(2-{[(2S)-1-(dimethylamino)propan-2-yl]carbamoyl}ethyl)carbamoyl]-1-methylethyl}carbamoyl)-1-methylethyl]carbamoyl}-3-methylbutyl]carbamoyl}-3-methylbutyl]carbamoyl}-1-methylethyl)carbamoyl]-3-methylbutyl]-2-{[(2S)-1-[(2E,4S)-4-methylhex-2-enoyl]pyrrolidin-2-yl]formamido}decanamide] ({Hexenoyl(2E,4S-Me)}-P[Gly(octyl)]L[Aib]LL[Aib][Aib][βAla]-{NH((S)CH(Me)CH2NMe2)})
IC50 [1]: 0.5 nM | IC50 [2]: 40.6 nM | IC50 [3]: 1.3 nM | IC50 [4]: 22.3 nM | IC50 (Plasmodium falciparum): 0.3 nM | IC50 at 70 h [5]: 459 nM

CCCCCCCC[C@H](NC(=O)[C@@H]1CCCN1C(=O)/C=C/[C@@H](C)CC)C(=O)N[C@H](C(=O)NC(C)(C)C(=O)N[C@@H](CC(C)C)C(=O)N[C@@H](CC(C)C)C(=O)NC(C)(C)C(=O)NC(C)(C)C(=O)NCCC(=O)NCCN1CCOCC1)[C@H](O)C(C)C [Compound 5569, (2S)-N-[(1S,2R)-2-hydroxy-3-methyl-1-[(1-methyl-1-{[(1S)-3-methyl-1-{[(1S)-3-methyl-1-{[1-methyl-1-({1-methyl-1-[(2-{[2-(morpholin-4-yl)ethyl]carbamoyl}ethyl)carbamoyl]ethyl}carbamoyl)ethyl]carbamoyl}butyl]carbamoyl}butyl]carbamoyl}ethyl)carbamoyl]butyl]-2-{[(2S)-1-[(2E,4S)-4-methylhex-2-enoyl]pyrrolidin-2-yl]formamido}decanamide] ({Hexenoyl(2E,4S-Me)}-P[Gly(octyl)][Leu(3R-OH)][Aib]LL[Aib][Aib][βAla]-{NH(2-morpholinoethyl)})
IC50 [1]: 1.7 nM | IC50 [2]: 143 nM | IC50 [3]: 3.8 nM | IC50 [4]: 107 nM | IC50 (Plasmodium falciparum): 17.9 nM | IC50 at 70 h [5]: 2420 nM

CCCCCCCC[C@H](NC(=O)/C=C/[C@@H](C)CC)C(=O)N[C@H](C(=O)NC(C)(C)C(=O)N[C@@H](CC(C)C)C(=O)N[C@@H](CC(C)C)C(=O)NC(C)(C)C(=O)NC(C)(C)C(=O)NCCC(=O)N[C@@H](C)CN(C)C)[C@H](O)C(C)C [Compound 5586, (2S)-N-[(1S,2R)-1-[(1-{[(1S)-1-{[(1S)-1-{[1-({1-[(2-{[(2S)-1-(dimethylamino)propan-2-yl]carbamoyl}ethyl)carbamoyl]-1-methylethyl}carbamoyl)-1-methylethyl]carbamoyl}-3-methylbutyl]carbamoyl}-3-methylbutyl]carbamoyl}-1-methylethyl)carbamoyl]-2-hydroxy-3-methylbutyl]-2-[(2E,4S)-4-methylhex-2-enamido]decanamide] ({Hexenoyl(2E,4S-Me)}-[Gly(octyl)][Leu(3R-OH)][Aib]LL[Aib][Aib][βAla]-{NH((S)CH(Me)CH2NMe2)})
IC50 [1]: 6.6 nM | IC50 [2]: 108 nM | IC50 [3]: 4.7 nM | IC50 [4]: 104 nM | IC50 (Plasmodium falciparum): 18.8 nM | IC50 at 70 h [5]: 1150 nM

CCCCCCCC[C@H](NC(=O)[C@@H]1CCCN1C(C)=O)C(=O)N[C@H](C(=O)NC(C)(C)C(=O)N[C@@H](CC(C)C)C(=O)N[C@@H](CC(C)C)C(=O)NC(C)(C)C(=O)NC(C)(C)C(=O)NCCC(=O)N[C@@H](C)CN(C)C)[C@H](O)C(C)C [Compound 5588, (2S)-2-{[(2S)-1-acetylpyrrolidin-2-yl]formamido}-N-[(1S,2R)-1-[(1-{[(1S)-1-{[(1S)-1-{[1-({1-[(2-{[(2S)-1-(dimethylamino)propan-2-yl]carbamoyl}ethyl)carbamoyl]-1-methylethyl}carbamoyl)-1-methylethyl]carbamoyl}-3-methylbutyl]carbamoyl}-3-methylbutyl]carbamoyl}-1-methylethyl)carbamoyl]-2-hydroxy-3-methylbutyl]decanamide] (Ac-P[Gly(octyl)][Leu(3R-OH)][Aib]LL[Aib][Aib][βAla]-{NH((S)CH(Me)CH2NMe2)})
IC50 [1]: 6 nM | IC50 [2]: 2330 nM | IC50 [3]: 4.6 nM | IC50 [4]: 463 nM | IC50 (Plasmodium falciparum): 9.6 nM | IC50 at 70 h [5]: 3540 nM
